Experimental data reported in ChEMBL document CHEMBL2331339.
The source made the active and inactive calls. No cut-off for these calls is given here.

Tests used:
[1] = target: T1, Alpha-hemolysin (Staphylococcus aureus) (UniProt P09616); assay: Inhibition of deoxycholate-induced wild type Staphylococcus aureus alpha-hemolysin oligomerization at 16 ug/ml by SDS-PAGE analysis
T1 sequence (whole entry): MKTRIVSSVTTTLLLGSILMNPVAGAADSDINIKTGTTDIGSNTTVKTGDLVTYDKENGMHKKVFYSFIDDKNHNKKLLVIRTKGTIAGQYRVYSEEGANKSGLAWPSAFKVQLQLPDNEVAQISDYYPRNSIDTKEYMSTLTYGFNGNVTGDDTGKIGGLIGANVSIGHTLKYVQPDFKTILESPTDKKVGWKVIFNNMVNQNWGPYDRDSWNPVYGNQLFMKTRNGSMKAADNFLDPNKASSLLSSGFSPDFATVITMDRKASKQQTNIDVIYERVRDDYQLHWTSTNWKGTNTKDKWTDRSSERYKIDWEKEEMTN

[2] = target: T1, Alpha-hemolysin (Staphylococcus aureus); assay: Binding affinity to wild type Staphylococcus aureus alpha-hemolysin by fluorescence quenching method
[3] = test system: Staphylococcus aureus; assay: Antimicrobial activity against Staphylococcus aureus at 1024 ug/ml by broth microdilution method; type: functional, organism-based
[4] = test system: Staphylococcus aureus; assay: Inhibition of alpha-hemolysin protein expression in Staphylococcus aureus 8325-4 at 4 to 256 ug/ml by Western blot analysis; type: functional, organism-based

`Cc1c(O)c(C)c2c(c1O)C(=O)CC(c1ccc(O)c(O)c1)O2` (centres undefined) was tested, and the inhibition [1] was “Active”, the Activity [2] was “Active” and the Activity [3] was “inactive”. For the same compound, the inhibition [4] was “inactive”.
